In one series the test system is PC-3 cells. Nature of the series: BrdU incorporation assay, PC-3. Particulars: − R1881; ENZ 10 µM, EPI-002 25 µM, JUG 20 µM, ATRA 10 µM. It is filed as cell-based, human. Here is the method:
(§1) Cells were treated with the inhibitors and stimulated with 1 nM of R1881 (+) or vehicle (−) for 24 to 72 h. Each data point represents the average from an independent experiment where the error bars show the mean ± s.e.m.
(§2) BrdU incorporation was determined with the colorimetric BrdU ELISA kit (Roche Diagnostics), according to the manufacturer’s protocol. In brief, cells were seeded in 96-well plates (LNCaP, 5000/well; LN95, 8000/well; PC-3 and DU145, 4000/wells) in media with reduced serum (0.5–1%). On the following day, cells were pre-treated with test compounds for 1 h and then incubated with 0.1 nM of R1881. After the indicated incubation times, cells were labeled with 10 μM of BrdU for 2 h and then fixed for the assay.

The subject of series [1] is LN95 cells. Description: BrdU incorporation assay, LN95. It is filed as cell-based, human. Particulars: ENZ 10 µM, EPI-002 25 µM, JUG 20 µM, ATRA 10 µM. The procedure:
as §1, §2
(Uptake of a labelled nucleoside into DNA is a usual measure of proliferation.)

The subject of series [2] is LN95 cells. Nature of the series: Colony formation of LN95 cells. To be noted: LN95, ATRA 5 or 10 µM, EPI-002 25 µM, treated 24 hours then re-plated. It is filed as cell-based, human. The procedure: page 5: Supplementary Figure 5 a b […] (a) Representative images of colonies from LN95 cells after […] EPI-002. After treating with compounds for 24 hours, the media was removed, and 500 -1,000 cells were re-plated in 6-well plates. Colonies were fixed with 4% paraformaldehyde, stained with a 0.1% crystal violet solution, and then imaged. […]

Another series has as its target T1, full-length AR (Homo sapiens, UniProt P10275, T878A).
T1 construct: Transcriptional activity of full-length AR was assessed in LNCaP cells; endogenous in cells; host or cells: LNCaP
T1 sequence (P10275 1-920 T878A): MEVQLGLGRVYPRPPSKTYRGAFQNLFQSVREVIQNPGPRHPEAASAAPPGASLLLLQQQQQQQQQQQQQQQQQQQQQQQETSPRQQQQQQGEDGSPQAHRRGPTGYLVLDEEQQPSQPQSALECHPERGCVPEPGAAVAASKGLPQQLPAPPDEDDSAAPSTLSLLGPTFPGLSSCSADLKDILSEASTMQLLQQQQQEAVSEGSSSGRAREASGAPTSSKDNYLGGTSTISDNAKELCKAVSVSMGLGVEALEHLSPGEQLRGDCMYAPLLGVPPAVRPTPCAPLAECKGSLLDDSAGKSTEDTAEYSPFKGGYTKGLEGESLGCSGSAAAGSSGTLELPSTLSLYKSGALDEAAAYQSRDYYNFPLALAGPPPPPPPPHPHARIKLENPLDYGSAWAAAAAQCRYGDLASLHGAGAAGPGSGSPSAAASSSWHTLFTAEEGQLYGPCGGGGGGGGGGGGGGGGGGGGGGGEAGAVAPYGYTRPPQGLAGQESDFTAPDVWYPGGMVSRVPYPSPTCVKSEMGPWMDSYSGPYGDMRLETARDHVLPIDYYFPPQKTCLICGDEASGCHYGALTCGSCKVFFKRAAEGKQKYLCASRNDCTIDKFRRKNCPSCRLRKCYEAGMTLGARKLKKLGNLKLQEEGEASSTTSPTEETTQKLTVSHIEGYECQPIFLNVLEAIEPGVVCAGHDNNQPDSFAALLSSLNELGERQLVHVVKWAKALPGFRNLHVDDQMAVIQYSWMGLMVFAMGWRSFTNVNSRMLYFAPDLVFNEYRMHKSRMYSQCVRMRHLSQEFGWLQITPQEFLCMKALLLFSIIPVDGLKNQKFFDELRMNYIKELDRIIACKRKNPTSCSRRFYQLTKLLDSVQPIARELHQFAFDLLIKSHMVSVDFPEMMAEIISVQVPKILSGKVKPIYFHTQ
Description: PSA(6.1 kb)-luciferase AR-driven reporter assay in LNCaP cells. It is filed as cell-based. To be noted: for fractional response (Fig. 5g): monotherapy or with 5 µM ATRA.

The conditions of series [3]: led to excessive pill burden; cited from earlier work.
In a further series the test system is DU145 cells. Nature of the series: BrdU incorporation assay, DU145. Type of series: cell-based, human. To be noted: − R1881; ENZ 10 µM, EPI-002 25 µM, JUG 20 µM, ATRA 10 µM. Here is the method:
as §1, §2

The target of a further series is AR-V7 (Homo sapiens, UniProt P10275). Description: Transcriptional reporter assay for AR-V7 (V7BS3-luciferase) in LNCaP cells. To be noted: enzalutamide 10 µM, EPI-002 25 µM, juglone 20 µM, ATRA 10 µM, 24 h.
Sequence of AR-V7 (P10275 1-644 isoform P10275-3): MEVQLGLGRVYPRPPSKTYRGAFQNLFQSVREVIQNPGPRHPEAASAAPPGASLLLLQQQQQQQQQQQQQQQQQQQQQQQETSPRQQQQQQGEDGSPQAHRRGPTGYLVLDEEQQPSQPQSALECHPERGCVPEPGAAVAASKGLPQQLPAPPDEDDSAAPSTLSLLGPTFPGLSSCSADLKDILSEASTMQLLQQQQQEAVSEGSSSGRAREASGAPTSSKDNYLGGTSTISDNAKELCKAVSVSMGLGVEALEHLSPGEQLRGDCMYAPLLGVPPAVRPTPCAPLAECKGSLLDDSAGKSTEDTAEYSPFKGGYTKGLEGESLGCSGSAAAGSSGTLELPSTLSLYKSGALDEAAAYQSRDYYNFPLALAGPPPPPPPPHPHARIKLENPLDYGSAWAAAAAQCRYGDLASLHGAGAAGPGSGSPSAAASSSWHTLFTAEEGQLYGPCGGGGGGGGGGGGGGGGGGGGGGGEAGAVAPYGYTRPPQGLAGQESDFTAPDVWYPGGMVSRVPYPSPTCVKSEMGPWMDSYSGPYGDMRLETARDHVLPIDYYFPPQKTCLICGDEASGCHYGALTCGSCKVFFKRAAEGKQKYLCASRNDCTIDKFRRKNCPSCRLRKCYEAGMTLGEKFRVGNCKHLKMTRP
Series [4] deals with LN95 cells. Description: Senescence-associated β-galactosidase staining, LN95. To be noted: LN95, ATRA 10 μM, EPI-002 25 μM, 3 days.
Description: β-galactosidase activity at suboptimal pH (6.0) was used as a marker to detect cellular senescence[42]. Cells were seeded in four-well chamber slides at a density of 8000-10,000 cells. […] Three days later, the media was removed and cells were fixed with 2% formaldehyde/0.2% glutaraldehyde for 10 min at room temperature, washed with PBS, and then incubated with freshly prepared β-Gal staining solution (Cell Signaling) titrated to pH 6.0. Staining was optimal after incubating with the β-Gal solution at 37 °C for 16–18 h. After staining, the slides were washed twice with PBS, once with absolute methanol, and then mounted with 50% glycerol/PBS. The percentage of β-galactosidase-positive cells were counted with ImageJ using the Cell Counter plugin. A total of nine images containing 100–300 cells were scored to determine the percentages of positive cells.
Series [5] concerns the target T2, human AR NTD (AR1–558) fused to Gal4DBD (Gal4-ARN) (Homo sapiens, UniProt P10275).
T2 construct: construct encoding the human AR1–558 of the NTD fused to a Gal4DBD (Gal4-ARN); expressed in transfected cells; host or cells: LNCaP
T2 sequence (P10275 1-558): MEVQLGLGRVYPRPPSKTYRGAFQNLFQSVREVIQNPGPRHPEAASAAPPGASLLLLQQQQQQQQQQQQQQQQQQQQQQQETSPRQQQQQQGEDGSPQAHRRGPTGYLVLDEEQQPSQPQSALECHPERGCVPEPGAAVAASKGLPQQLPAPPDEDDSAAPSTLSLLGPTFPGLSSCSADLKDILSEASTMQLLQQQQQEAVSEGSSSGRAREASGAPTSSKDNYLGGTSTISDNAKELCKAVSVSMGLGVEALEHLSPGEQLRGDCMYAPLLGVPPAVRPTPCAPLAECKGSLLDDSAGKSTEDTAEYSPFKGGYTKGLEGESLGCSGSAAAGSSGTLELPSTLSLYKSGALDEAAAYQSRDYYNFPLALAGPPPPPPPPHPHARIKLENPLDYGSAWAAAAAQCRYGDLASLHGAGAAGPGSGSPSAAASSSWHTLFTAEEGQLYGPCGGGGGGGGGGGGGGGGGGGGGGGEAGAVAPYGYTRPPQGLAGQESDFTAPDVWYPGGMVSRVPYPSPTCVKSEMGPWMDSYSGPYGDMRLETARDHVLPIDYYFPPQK
Nature of the series: AR NTD transactivation assay (Gal4-ARN) in LNCaP cells. Particulars: EPI-002 25 μM, juglone 20 μM, ATRA 10 μM, 24 h. It is filed as cell-based. An excerpt: The remaining putative Pin1-binding sites are within the intrinsically disordered AR NTD that contains transcription activation units, Tau-1 and Tau-5, to mediate androgen-dependent and androgen-independent transactivation, respectively[5],[30]. The loss of AR-LBD shifts the location of transcriptional activity from Tau-1 with androgen, to Tau-5 in the absence of LBD[30].
Error bars show the mean ± s.e.m. *P < 0.05, **P < 0.01, ***P < 0.001; ns not significant.

Values joined by “and” are separate entries in the source; they are usually repeats but may differ in a detail not shown here. Identical values can stand only once.

As to `CC(C)(c1ccc(OC[C@H](O)CO)cc1)c1ccc(OC[C@H](O)CCl)cc1` [ralaniten], the “BrdU incorporation, PC-3 (Fig. 4c)” value with PC-3 cells is 0.683 and 1.048 and 0.96 and 1.348. Further, the “effect on proliferation of LN95 cells” value with LN95 cells [1] was “attenuated the proliferation of LN95 cells”. The “effect on colony formation” value in the series with LN95 cells [2] is “significantly reduced the number of colonies”. For the same compound, at full-length AR (40 µM of ralaniten), the “inhibition of reporter activity at highest concentration” value is given as ~ 98%. The “fractional response (Fig. 5g)” value at full-length AR (EPI-002 20 μM) is 0.8041 and 0.7145 and 0.7078 and 0.8391; at full-length AR (EPI-002 40 μM), 0.9915 and 0.9757 and 0.9847 and 0.9439. Moreover, in [3], the “pharmacokinetics in clinical testing” value is “poor pharmacokinetics”. Also, the “BrdU incorporation, DU145 (Fig. 4d)” value in the series on DU145 cells is 0.692 and 0.859 and 0.62. The “effect on AR-V7-induced V7BS3-luciferase reporter activity” value at AR-V7 is listed as “decreased AR-V7-induced reporter activity”. For the same compound, in the series on LN95 cells [4], the “SA β-gal-positive cells” value was found to be 31%. Besides, in series [5] (IL-6 50 ng/mL), the “effect on IL-6-induced transactivation of AR NTD (Gal4-ARN)” value is “both blocked”. For the same compound, the “effect on forskolin-induced transactivation of AR NTD (Gal4-ARN)” value in [5] (forskolin 25 μM) was “both blocked”.

The values are drawn from paper PMC7985297 (Communications Biology, 2021).
